Assays:
JAK3 kinase = JAK3 kinase (Homo sapiens (Human), UniProt P52333); test: Mass spectrometry for Janus-3 kinase (JAK3); type: binding; conditions: 3 hrs at 10× excess, tryptic digestion
Procedure: Mass Spectrometry for Janus-3 Kinase (JAK3)
(§1) JAK3 kinase (33 pmols; Invitrogen) was incubated with (I-7) (327 pmols) for 3 hrs at 10× excess prior to tryptic digestion. Iodoacetamide was used as the alkylating agent after compound incubation. For tryptic digests a 5 ul aliquot (5.5 pmols) was diluted with 15 ul of 0.1% TFA prior to micro C18 Zip Tipping directly onto the MALDI target using alpha cyano-4-hydroxy cinnamic acid as the matrix (5 mg/ml in 0.1% TFA:Acetonitrile 50:50).
(§2) For tryptic digests the instrument was set in Reflectron mode with a pulsed extraction setting of 2200. Calibration was done using the Laser Biolabs Pep Mix standard ([…], 1296.69, 1672.92, 2093.09, 2465.20). For CID/PSD analysis the peptide was selected using cursors to set ion gate timing and fragmentation occurred at a laser power about 20% higher and He was used as the collision gas for CID. Calibration for fragments was done using the P14R fragmentation calibration for the Curved field Reflectron.

[1] = system: BTK signaling in Ramos cells; test: BTK Ramos cellular assay (phosphorylation of BTK substrate PLCγ2); type: cell-based, human; conditions: Homo sapiens, 1 hour compound, anti-IgM stimulation, read-out: BTK Inhibition (Ramos cellular)
Method in brief: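 Serum-starved Ramos Burkitt lymphoma cells treated 1 h with compound at 1, 0.1, 0.01 or 0.001 μM final. B-cell receptor stimulated with 1 μg anti-human IgM F(ab′)2, 10 min on ice. Lysates (16 μg protein) immunoblotted for phospho-PLCγ2.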

TEC kinase = TEC kinase (Homo sapiens (Human), UniProt P42680); test: Mass spectrometry for TEC kinase (tryptic digest); type: binding; conditions: 3 hrs at 10× excess, tryptic digestion
Procedure: Mass Spectrometry for TEC Kinase (Compound I-2)
as §1, with “TEC” for “JAK3”, “(45” for “(33”, “(I-2) (450” for “(I-7) (327”, “incubation. […]” for “incubation.”, “(7.5” for “(5.5”
as §2
as §1, with “TEC” for “JAK3”, “(45” for “(33”, “(I-4) (450” for “(I-7) (327”, “incubation. […]” for “incubation.”, “(7.5” for “(5.5”
as §2, with “1800.” for “2200.”
TEC kinase (45 pmols; Invitrogen) was incubated with […] (450 pmols) for 3 hrs at 10× excess prior to tryptic digestion. […]

BTK in Ramos cells [2] = molecular target: T1, BTK in Ramos cells (Homo sapiens (Human), UniProt Q06187); test: Washout experiment with I-7 and probe compound I-215 in Ramos cells; type: cell-based; conditions: 0.1 μM, 1 hour, then washout
Procedure: Washout Experiment with I-7 and Probe Compound I-215
Ramos cells were incubated with 0.1 μM I-7 or a reversible BTK inhibitor control compound in serum free media for 1 hour at 37° C. The cells were then washed in compound-free media and lysed 0, 4, 6, or 8 hours after compound removal. Cell lysates were incubated with 1 μM I-215 for 1 hour at room temperature, then overnight at 4° C. with streptavidin-coupled agarose beads. Protein was boiled off the beads and BTK association was assessed by western blot. […] In contrast, with the reversible inhibitor control, 45% of BTK protein is unbound and available to the probe at 0 hours and by 4 hours 100% of BTK protein is unbound and available to bind the probe. All samples were normalized to the DMSO-treated cells harvested at 0 hours.

BTK = BTK (Homo sapiens (Human), UniProt Q06187); test: Mass spectrometry for BTK (intact protein); type: binding; conditions: 1 hr, 10× fold excess of compound
Procedure: Mass Spectrometry for BTK
Intact BTK was incubated for 1 hr at a 10× fold excess of I-7 to protein. Aliquots (2 μl) of the samples were diluted with 10 μl of 0.1% TFA prior to micro C4 ZipTipping directly onto the MALDI target using Sinapinic acid as the desorption matrix (10 mg/ml in 0.1% TFA:Acetonitrile 20:80).

BTK in Ramos cells [3] = molecular target: T1, BTK in Ramos cells; test: BTK occupancy from in vitro samples by ELISA (Ramos cells); type: cell-based; conditions: ELISA with probe I-215
Description: Measuring BTK Occupancy from In Vitro Samples by ELISA
In order to determine the amount of free BTK in cell or tissue lysates, an ELISA protocol was employed that utilizes a biotinylated probe compound that binds only to free, unoccupied BTK. The conjugated biotin is captured on a streptavidin-coated ELISA plate and detected with a mouse anti-BTK antibody (Becton Dickinson, Franklin Lakes, N.J., USA) and a secondary goat anti-mouse HRP antibody (Zymed, South San Francisco, Calif., USA).
All samples were prepared with equal concentrations of Biorad lysis buffer (Hercules, Calif., USA), 0.5% bovine serum albumin in PBS with 0.05% Tween-20 to give a final concentration of 1 μM I-215. Samples were incubated in a mixing plate for 1 hr at room temperature while shaking to allow probe compound I-215 to bind to free BTK. After incubation with I-215, samples were added to a washed, streptavidin-coated ELISA plate (Pierce, Rockford, Ill., USA) and incubated for 1 hr at room temperature while shaking. The plate was then washed with PBS containing 0.05% Tween-20 using an automatic plate washer. Anti-BTK antibody was prepared at 1:1000 dilution in 0.5% BSA in PBS (0.05% Tween-20) and added to the ELISA plate. The plate was incubated for 1 hr at room temperature while shaking. The plate was washed as described above and the secondary HRP antibody was prepared at 1:5000 dilution in 0.5% BSA in PBS (0.05% Tween-20). The plate was incubated and washed as described above. TMB was added to the plate, and OD650 was monitored until reaching 1 OD unit. The reaction was then stopped with addition of H2SO4. The plate was analyzed using Gen 5 software, and a 4 Parameter Logistic curve was employed to quantitate samples. Recombinant BTK (Invitrogen, Carlsbad, Calif., USA) was used for the standard curve.
A concentration designated as “A” is greater than 1 nM; a concentration designated as “B” is greater than 10 nM; and a concentration designated as “C” is greater than 50 nM.

[4] = system: BTK kinase activity (PLCγ2 phosphorylation) in Ramos cells; test: Washout experiment with Ramos cells; type: cell-based, human; conditions: 100 nM compound for 1 hour, then washout
Procedure: Washout Experiment with Ramos Cells
Ramos cells were serum starved for one hour in RPMI media+1% glutamine at 37° C. After starvation, Ramos cells were treated with 100 nM compound diluted in serum free RPMI media for 1 hour. After compound treatment, the media was removed and cells were washed with compound-free media. Subsequently, Ramos cells were washed every 2 hours and resuspended in fresh compound-free media. Cells were collected at specified timepoints, treated with 1 ug anti-human IgM (Southern Biotech cat #2022-01) for 10 minutes on ice to induce BCR signaling and then washed in PBS. Ramos cells were then lysed in Cell Extraction Buffer (Invitrogen FNN0011) supplemented with Roche complete protease inhibitor tablets (Roche 11697498001) and phosphatase inhibitors (Roche 04 906 837 001) and 18 ug total protein lysate was loaded in each lane. Inhibition of BTK kinase activity was assayed by measuring its substrate (PLCγ2) phosphorylation by western blot with phospho-specific antibodies from Cell Signaling Technologies cat #3871. The results of this experiment with compounds I-2, I-4 and I-7 are depicted in FIGS. 1, 2 and 3.

Sequence of TEC kinase (P42680 whole entry): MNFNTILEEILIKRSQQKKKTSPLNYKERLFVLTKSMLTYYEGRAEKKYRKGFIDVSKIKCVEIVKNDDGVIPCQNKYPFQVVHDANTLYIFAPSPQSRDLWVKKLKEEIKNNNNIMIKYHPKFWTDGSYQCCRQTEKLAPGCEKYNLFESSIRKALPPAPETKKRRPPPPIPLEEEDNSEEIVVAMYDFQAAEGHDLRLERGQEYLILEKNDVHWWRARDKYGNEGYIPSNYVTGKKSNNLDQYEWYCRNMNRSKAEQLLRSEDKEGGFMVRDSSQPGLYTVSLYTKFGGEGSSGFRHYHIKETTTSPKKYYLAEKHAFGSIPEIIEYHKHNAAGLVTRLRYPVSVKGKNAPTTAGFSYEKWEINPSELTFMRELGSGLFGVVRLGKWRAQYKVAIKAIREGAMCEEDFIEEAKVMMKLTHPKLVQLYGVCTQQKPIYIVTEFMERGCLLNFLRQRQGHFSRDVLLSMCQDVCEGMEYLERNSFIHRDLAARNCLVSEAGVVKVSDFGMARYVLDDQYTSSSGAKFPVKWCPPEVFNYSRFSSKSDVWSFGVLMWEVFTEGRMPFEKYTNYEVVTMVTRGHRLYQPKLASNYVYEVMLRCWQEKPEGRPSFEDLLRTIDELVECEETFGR
Sequence of BTK (Q06187 whole entry): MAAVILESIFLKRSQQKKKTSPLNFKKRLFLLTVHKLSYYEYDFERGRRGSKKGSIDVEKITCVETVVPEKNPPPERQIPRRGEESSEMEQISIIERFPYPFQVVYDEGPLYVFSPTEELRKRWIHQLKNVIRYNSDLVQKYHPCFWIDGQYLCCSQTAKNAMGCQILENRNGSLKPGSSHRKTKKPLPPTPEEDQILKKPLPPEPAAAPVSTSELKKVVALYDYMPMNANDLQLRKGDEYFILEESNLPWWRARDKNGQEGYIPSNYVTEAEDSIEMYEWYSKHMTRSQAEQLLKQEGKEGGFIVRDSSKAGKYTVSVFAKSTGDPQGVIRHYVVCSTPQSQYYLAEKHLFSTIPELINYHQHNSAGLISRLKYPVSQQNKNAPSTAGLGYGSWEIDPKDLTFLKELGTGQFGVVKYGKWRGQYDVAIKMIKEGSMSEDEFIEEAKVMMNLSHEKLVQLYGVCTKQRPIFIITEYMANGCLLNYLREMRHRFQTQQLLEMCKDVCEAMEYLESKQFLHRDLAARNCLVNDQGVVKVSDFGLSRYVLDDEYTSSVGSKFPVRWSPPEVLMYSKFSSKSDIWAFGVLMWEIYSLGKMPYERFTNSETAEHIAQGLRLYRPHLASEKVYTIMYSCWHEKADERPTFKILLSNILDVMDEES
T1 sequence (Q06187 whole entry): as above
Sequence of JAK3 kinase (P52333 whole entry): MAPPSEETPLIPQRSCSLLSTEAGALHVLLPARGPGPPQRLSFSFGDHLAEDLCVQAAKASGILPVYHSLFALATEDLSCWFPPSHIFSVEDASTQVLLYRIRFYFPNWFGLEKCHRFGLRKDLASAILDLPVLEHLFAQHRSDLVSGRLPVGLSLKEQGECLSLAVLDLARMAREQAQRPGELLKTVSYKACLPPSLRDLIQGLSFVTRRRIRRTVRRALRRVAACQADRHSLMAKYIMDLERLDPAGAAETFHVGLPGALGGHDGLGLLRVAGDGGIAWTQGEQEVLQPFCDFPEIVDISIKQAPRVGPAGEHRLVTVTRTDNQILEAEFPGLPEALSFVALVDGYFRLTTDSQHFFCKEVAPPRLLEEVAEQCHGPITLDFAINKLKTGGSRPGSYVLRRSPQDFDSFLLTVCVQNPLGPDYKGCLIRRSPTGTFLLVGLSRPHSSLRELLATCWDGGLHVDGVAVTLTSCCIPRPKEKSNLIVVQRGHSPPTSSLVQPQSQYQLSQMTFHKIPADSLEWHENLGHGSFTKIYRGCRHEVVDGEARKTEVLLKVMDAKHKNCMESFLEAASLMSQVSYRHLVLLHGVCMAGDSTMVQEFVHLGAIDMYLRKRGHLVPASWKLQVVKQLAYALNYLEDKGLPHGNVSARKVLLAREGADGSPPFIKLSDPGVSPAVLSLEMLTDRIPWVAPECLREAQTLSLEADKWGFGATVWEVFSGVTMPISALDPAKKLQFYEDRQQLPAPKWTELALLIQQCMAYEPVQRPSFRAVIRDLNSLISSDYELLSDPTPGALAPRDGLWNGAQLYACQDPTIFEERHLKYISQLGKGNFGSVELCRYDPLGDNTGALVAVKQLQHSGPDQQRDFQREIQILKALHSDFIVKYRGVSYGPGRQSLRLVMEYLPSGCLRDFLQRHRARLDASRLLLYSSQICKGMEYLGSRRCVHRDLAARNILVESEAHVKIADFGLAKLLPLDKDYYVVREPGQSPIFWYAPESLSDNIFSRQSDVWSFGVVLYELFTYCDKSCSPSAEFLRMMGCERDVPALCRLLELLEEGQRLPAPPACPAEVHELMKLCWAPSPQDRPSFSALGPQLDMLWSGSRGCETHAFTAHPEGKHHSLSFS

SMILES	modification of JAK3 kinase by mass spectrometry (JAK3 kinase)	IC50 [1]	covalent modification of TEC kinase peptide GCLLNFLR by mass spectrometry (TEC kinase)	time BTK protein remains occupied after compound removal (BTK in Ramos cells [2])	modification of BTK by mass spectrometry (BTK)	>50% occupancy (concentration) (BTK in Ramos cells [3])	>90% occupancy (concentration) (BTK in Ramos cells [3])	BTK Inhibition Type [4]
Cc1cnc(Nc2cccc(S(N)(=O)=O)c2)nc1Nc1ccc2c(c1)CCN(C(=O)CCl)C2 [Compound I-11, 3-(4-(2-(2-chloroacetyl)-1,2,3,4-tetrahydroisoquinolin-6-ylamino)-5-methylpyrimidin-2-ylamino)benzenesulfonamide]	measurable modification	–	–	–	–	–	–	–
C=CC(=O)Nc1cccc(Nc2nc(Nc3ccccc3)ncc2C)c1 [Compound I-7, N-(3-(5-methyl-2-(phenylamino)pyrimidin-4-ylamino)phenyl) acrylamide]	not entirely complete	< 10 nM	reaction was complete	over 8 hours	complete modification	A (greater than 1 nM)	B (greater than 10 nM)	irreversible
C=CC(=O)Nc1cccc(Nc2ncc(C)c(Nc3cccc(C)c3)n2)c1 [Compound I-2, N-(3-(5-methyl-4-(m-tolylamino)pyrimidin-2-ylamino)phenyl) acrylamide]	–	–	reaction was complete	–	–	–	–	irreversible
Cc1cccc(Nc2nc(Nc3cccc(NC(=O)/C=C/CN(C)C)c3)ncc2F)c1 [Compound I-4, (E)-4-(dimethylamino)-N-(3-(5-fluoro-4-(m-tolylamino)pyrimidin-2-ylamino)phenyl)but-2-enamide]	–	10 to 100 nM	reaction was complete	–	–	–	–	irreversible
C=CC(=O)N1CCC[C@@H](Nc2nc(Nc3cccc(OC)c3)ncc2F)C1 [Compound I-195, (R)-1-(3-(5-fluoro-2-(3-methoxyphenylamino)pyrimidin-4-ylamino)piperidin-1-yl)prop-2-en-1-one]	–	10 to 100 nM	–	–	completely modify	–	–	–
C=CC(=O)Nc1cccc(Nc2nc(Nc3ccc(OCCOC)c(F)c3)ncc2F)c1 [Compound I-96, N-(3-(2-(3-fluoro-4-(2-methoxyethoxy)phenylamino)-5-fluoropyrimidin-4-ylamino)phenyl)acrylamide]	–	< 10 nM	–	–	completely modify	A (greater than 1 nM)	B (greater than 10 nM)	–
CC(C)=CC(=O)c1cccc(Nc2nc(Nc3cccc(OCCN(C)C)c3)ncc2F)c1 [Compound I-207]	–	100 to 1000 nM	–	–	completely modify	–	–	–
